Source: ChEMBL document CHEMBL4138057, “Structure-guided optimization of quinoline inhibitors of Plasmodium N-myristoyltransferase” (Medchemcomm, 2017)

Target: T1, Glycylpeptide N-tetradecanoyltransferase (Plasmodium falciparum (isolate 3D7), UniProt Q8ILW6)
T1 sequence (Q8ILW6 whole entry): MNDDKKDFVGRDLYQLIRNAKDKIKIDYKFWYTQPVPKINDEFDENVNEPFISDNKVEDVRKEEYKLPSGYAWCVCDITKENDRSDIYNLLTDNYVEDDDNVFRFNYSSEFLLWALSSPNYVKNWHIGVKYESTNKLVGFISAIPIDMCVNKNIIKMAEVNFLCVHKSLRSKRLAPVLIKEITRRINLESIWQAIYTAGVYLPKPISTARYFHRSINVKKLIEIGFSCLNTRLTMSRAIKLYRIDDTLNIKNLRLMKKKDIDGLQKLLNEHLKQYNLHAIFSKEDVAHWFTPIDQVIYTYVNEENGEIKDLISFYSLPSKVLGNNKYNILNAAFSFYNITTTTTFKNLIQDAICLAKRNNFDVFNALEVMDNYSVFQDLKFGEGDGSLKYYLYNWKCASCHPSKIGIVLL
Assay: Inhibition of Plasmodium falciparum NMT preincubated for 10 to 20 mins followed by Hs pp60src (2 to 16 residues) substrate addition measured after 60 mins by CPM-based fluorescence assay
Conditions: read-out: Ki(app)

## CCOC(=O)c1cnc2ccc(OCc3ccccc3)cc2c1SCCC#N
  Ki: > 10 µM

## CCOC(=O)c1cnc2ccc(OCc3ccccc3)cc2c1S(=O)(=O)CC
  Ki: > 10 µM

## CCSc1c(CO)cnc2ccc(OCc3ccccc3)cc12
  Ki: > 10 µM
